Results taken from article PMC4039224, “Cadherin-11 in poor prognosis malignancies and rheumatoid arthritis: common target, common therapies” (Oncotarget, 2013).

Assays:
[1] = target: T1, mouse CDH11 (EC1-2 domain) (Mus musculus, UniProt P55288); experiment: SPR competition of homophilic CDH11 binding, Biacore T200 CM5; details: 6.25-200 uM compound co-injected with 2.5 uM EC1-2; pH 7.4 HEPES, 150 mM NaCl, 3 mM CaCl2, 1% DMSO; inhibits homodimerization, W-binding pocket (modelled); salt form ambiguous (b61 vs Table 1)
T1 construct: extracellular domains EC1-EC2 only; wild-type soluble EC1-2, and C-terminally cysteine-tagged EC1-2 immobilised on the SPR chip; forms homodimer
T1 sequence (P55288 54-268 limits assumed): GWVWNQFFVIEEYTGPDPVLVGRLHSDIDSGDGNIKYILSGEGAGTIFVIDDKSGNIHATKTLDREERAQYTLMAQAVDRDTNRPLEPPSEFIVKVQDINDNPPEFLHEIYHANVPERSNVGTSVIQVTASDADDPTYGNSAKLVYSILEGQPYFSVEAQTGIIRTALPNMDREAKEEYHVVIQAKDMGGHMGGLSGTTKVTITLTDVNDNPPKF

[2] = target: T1, mouse CDH11 (EC1-2 domain); experiment: native gel, dimer fraction; type: binding; details: 1:1 molar ratio with purified CDH11 EC1-2, compound in DMSO; inhibits homodimerization; species of the gel protein not stated again
[3] = target: wild type mouse cadherin-11 (CDH11) EC1-2 (mouse); experiment: native gel or EMSA; purified CDH11 EC1-2 without and with celecoxib (in DMSO, 1:1 molar ratio); monomer and dimer fractions

## Oc1ccc(-c2cccnc2-c2ccccc2)cc1 [Sd-133, 4-(2-phenyl-3-pyridyl)phenol]
[1]
  SPR competition of homophilic CDH11 binding, Biacore T200 CM5: Sd-133 competed with CDH11 (ligand) in binding to immobilized CDH11 protein

## Cc1ccc(-c2cc(C(F)(F)F)nn2-c2ccc(S(N)(=O)=O)cc2)cc1 [celecoxib, 4-[5-(4-methylphenyl)-3-(trifluoromethyl)pyrazol-1-yl]benzenesulfonamide]
[2]
  native gel, dimer fraction: Note that celecoxib reduces the dimer fraction

## wild type mouse cadherin-11 (CDH11) EC1-2 (domain or fragment)
[3]
  stoichiometry N: 2
